Where “and” joins values, the source holds several entries; their conditions need not be identical. Equal entries are not always repeated.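 Cells were grown in 96-well plates and exposed to each compound for 48 hours at five concentrations; endpoints were interpolated linearly between bracketing concentrations, or set to the highest concentration if not reached. Here, GI50 denotes the concentration required for 50% inhibition of growth. TGI denotes the concentration required for complete inhibition of growth.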
Experiments:
Test in all cases: NCI tumour cell line growth inhibition, 48 h
HCC-2998 colon = test system: HCC-2998 colon
MOLT-4 leukemia = test system: MOLT-4 leukemia
RPMI-8226 leukemia = test system: RPMI-8226 leukemia
HT29 colon = test system: HT29 colon
U251 CNS = test system: U251 CNS
SR leukemia = test system: SR leukemia
A498 renal = test system: A498 renal
RXF 393 renal = test system: RXF 393 renal
SW-620 colon = test system: SW-620 colon
786-0 renal = test system: 786-0 renal

| Compound | GI50 (HCC-2998 colon) | TGI (HCC-2998 colon) | GI50 (MOLT-4 leukemia) | TGI (MOLT-4 leukemia) | GI50 (RPMI-8226 leukemia) | TGI (RPMI-8226 leukemia) | GI50 (HT29 colon) | TGI (HT29 colon) | GI50 (U251 CNS) | TGI (U251 CNS) | GI50 (SR leukemia) | TGI (SR leukemia) | GI50 (A498 renal) | TGI (A498 renal) | GI50 (RXF 393 renal) | TGI (RXF 393 renal) | GI50 (SW-620 colon) | TGI (SW-620 colon) | GI50 (786-0 renal) | TGI (786-0 renal) |
| --- | --- | --- | --- | --- | --- | --- | --- | --- | --- | --- | --- | --- | --- | --- | --- | --- | --- | --- | --- | --- |
| CCN(CC)c1ccc2c(c1)Oc1nc(N)c(C#N)c(N)c1C2Sc1ccc(OC)cc1 (stereo not given) | 1810 nM | 3430 nM | 2370 nM | 6210 nM | 1960 nM | 5020 nM | 2100 nM | 4270 nM | 1420 nM | 2810 nM | 1670 nM | 4780 nM | 2290 nM | 4140 nM | 1880 nM | 3350 nM | 1900 nM | 3620 nM | 1740 nM | 3220 nM |
| CC(C)CC(=O)Nc1n[nH]c2c1CN(C(=O)C1CCN(C)CC1)C2(C)C | 1170 nM | > 10000 nM | 917 nM | > 10000 nM | 506 nM | 5970 nM | 790 nM | > 10000 nM | 439 nM | > 10000 nM | 135 nM | 2590 nM | 2340 nM | > 10000 nM | 1220 nM | 4040 nM | 895 nM | > 10000 nM | 2070 nM | > 10000 nM |
| COc1cc(Nc2ncc(F)c(Nc3ccc4c(n3)NC(=O)C(C)(C)O4)n2)cc(OC)c1OC | > 100000 nM | > 100000 nM | 3380 nM and 6700 nM | > 100000 nM | > 100000 nM | > 100000 nM | 1320 nM and 2010 nM | > 100000 nM | > 10000 nM | > 10000 nM | 2710 nM and > 10000 nM | > 100000 nM | 148 nM and 352 nM | 547 nM and 2150 nM | 418 nM | 5890 nM | > 10000 nM | > 10000 nM | 1030 nM and 1270 nM | > 100000 nM |
